Reference: patent US20230201342A1, “USE OF LENVATINIB PLUS ANTI-PD-1 MONOCLONAL ANTIBODY IN PREPARATION OF ANTI-HEPATOMA DRUG” (Guangzhou X Cell Therapy Biomedical Tech Co., Ltd, priority 2021, published 2023)

Key:
[1] = system: mouse hepatoma cells (Hepa1-6) xenograft; test: subcutaneous tumorigenicity assay, tumor size (Example 1); type: in vivo
Experimental: 3. Detection of the effects of different doses of lenvatinib on hepatoma xenograft by subcutaneous tumorigenicity assay of immunocompetent C57B/L mice. (1) Separately, 1×10^6 mouse hepatoma cells (Hepa1-6) were implanted into the subcutaneous stratum of the armpits of 20 […] mice aged 3-4 weeks. The mice were randomized into four groups: a blank control group, a 3 mg/kg/day lenvatinib group, a 10 mg/kg/day lenvatinib group, and a 30 mg/kg/day lenvatinib group. (2) When the size of the subcutaneous tumor reached 100-200 mm^3: each mouse of the 3 mg/kg/day lenvatinib group was orally administered with 3 mg/kg/day lenvatinib by gastric gavage once a day; each mouse of the 10 mg/kg/day lenvatinib group was orally administered with 10 mg/kg/day lenvatinib by gastric gavage once a day; and each mouse of the 30 mg/kg/day lenvatinib group was orally administered with 30 mg/kg/day lenvatinib by gastric gavage once a day. According to the existing literature, 30 mg/kg was a routine dose of lenvatinib (Selleck) for laboratory mice. (3) The tumor size was measured every two days, and the difference in tumor size was compared among groups.

[2] = system: CD8-positive T cells in Hepa1-6 tumor tissue; test: flow cytometry of CD45/CD8-positive cells in resected tumor tissue (Example 1); type: in vivo, mouse; conditions: 10 mg/kg/day, after 3 weeks
Experimental: (§1) (1) Separately, 1×10^6 mouse hepatoma cells (Hepa1-6) were implanted into the subcutaneous stratum of the armpits of 20 […] mice aged 3-4 weeks. The mice were randomized into four groups: a blank control group, a 3 mg/kg/day lenvatinib group, a 10 mg/kg/day lenvatinib group, and a 30 mg/kg/day lenvatinib group. (2) When the size of the subcutaneous tumor reached 100-200 mm^3: each mouse of the 3 mg/kg/day lenvatinib group was orally administered with 3 mg/kg/day lenvatinib by gastric gavage once a day; each mouse of the 10 mg/kg/day lenvatinib group was orally administered with 10 mg/kg/day lenvatinib by gastric gavage once a day; and each mouse of the 30 mg/kg/day lenvatinib group was orally administered with 30 mg/kg/day lenvatinib by gastric gavage once a day. According to the existing literature, 30 mg/kg was a routine dose of lenvatinib (Selleck) for laboratory mice. (4) After 3 weeks, the mice were sacrificed, tumor tissues were resected, a part of fresh tumor tissue was separated and ground into a single cell suspension, and the proportion of positive cells labeled with CD45 and CD8 was detected by flow cytometry; meanwhile, the other part of tumor tissue was fixed and embedded, and vascular markers (CD31, α-SMA, and VEGFR2) and CD8-positive T cell infiltration were detected by immunohistochemistry.

[3] = system: mouse hepatoma cells (Hepa1-6) xenograft; test: subcutaneous tumorigenicity assay, lenvatinib plus anti-PD-1 monoclonal antibody (Example 2); type: in vivo; conditions: for growth of hepatoma xenograft: oral gavage, 3 weeks
Excerpt: Detection of the effects of different doses of lenvatinib plus anti-PD-1 monoclonal antibody on hepatoma xenograft by subcutaneous tumorigenicity assay of immunocompetent C57B/L mice.
(1) Separately, 1×10^6 mouse hepatoma cells (Hepa1-6) were implanted into the subcutaneous stratum of the armpits of 24 C57B/L mice aged 3-4 weeks. The mice were randomized into six groups: The mice were randomized into six groups: a blank control group, an anti-PD-1 monoclonal antibody alone group, a low-dose lenvatinib group, a high-dose lenvatinib group, a low-dose lenvatinib+anti-PD-1 monoclonal antibody group, and a high-dose lenvatinib+anti-PD-1 monoclonal antibody group.
(2) When the size of the subcutaneous tumor reached 100-200 mm^3: each mouse of the anti-PD-1 monoclonal antibody alone group was intraperitoneally administered with 200 μg of anti-PD-1 monoclonal antibody every three days; each mouse of the low-dose lenvatinib group was orally administered with 10 mg/kg/day lenvatinib by gastric gavage once a day; each mouse of the high-dose lenvatinib group was orally administered with 30 mg/kg/day lenvatinib by gastric gavage once a day; each mouse of the low-dose lenvatinib group+anti-PD-1 monoclonal antibody was orally administered with 10 mg/kg/day lenvatinib by gastric gavage once a day and intraperitoneally administered with 200 μg of anti-PD-1 monoclonal antibody every three days; and each mouse of the high-dose lenvatinib group+anti-PD-1 monoclonal antibody was orally administered with 30 mg/kg/day lenvatinib by gastric gavage once a day and intraperitoneally administered with 200 μg of anti-PD-1 monoclonal antibody every three days.
(4) After 3 weeks, the mice were sacrificed, and data statistics and reduction were conducted.

[4] = system: CD31, NG2, CD8 in Hepa1-6 tumor tissue; test: immunohistochemistry of vascular markers and CD8-positive T cell infiltration in tumor tissue (Example 1); type: in vivo, mouse
Experimental: as §1

COc1cc2nccc(Oc3ccc(NC(=O)NC4CC4)c(Cl)c3)c2cc1C(N)=O [lenvatinib]
difference in tumor growth among the three dose groups ([1]; 3 vs 10 vs 30 mg/kg/day lenvatinib): no significant difference
growth of hepatoma xenograft (tumor size) ([1]; all three doses 3, 10, 30 mg/kg/day, oral gavage once a day, 3 weeks): inhibit the growth of hepatoma xenograft
percentage of CD8-positive T cells in the tumor tissue [2]: significantly increased
difference in tumor growth between low-dose and high-dose groups ([3]; 10 vs 30 mg/kg/day lenvatinib alone): no significant difference
growth of hepatoma xenograft ([3]; high-dose lenvatinib 30 mg/kg/day): inhibit the growth of hepatoma xenograft
growth of hepatoma xenograft ([3]; low-dose lenvatinib 10 mg/kg/day): inhibit the growth of hepatoma xenograft
infiltrating CD8-positive T cells in the tumor tissue ([4]; 10 mg/kg/day): significantly increased
expression of peripheral cell marker molecule NG2 ([4]; 10 mg/kg/day only): upregulation
vascular normalization in tumor tissue ([4]; 10 mg/kg/day only): significantly improve vascular normalization
microvessel density (CD31) in hepatoma tissue ([4]; all three doses 3, 10, 30 mg/kg/day): significantly reduce
